Residues, ends and D or L forms follow the SMILES beside them.
Key:
MMP-2 and MMP-9 [1] = assay: MMP-2 and MMP-9 mRNA by real time qPCR, human melanoma cells; format: cell-based; conditions: FIG. 5A
Text: FIG. 5A is a series of histograms showing the MMP-2 and MMP-9 mRNA transcriptional activity in established human melanoma cells (A-375, C8161.9, and MeWo cells) and patient-derived early passage human melanoma cells (TPF-19-219, TPF-19-235, and TPF-16-238 cells) treated with IVMT-Rx-3 at varying doses, as determined by qPCR. *: Statistical significance (p<0.05).
Total cellular RNA was extracted using an RNAeasy kit (Qiagen, Germany) as described previously (8,9). All Taqman probes used in this study were obtained from Applied Biosystems (Applied Biosystems, Foster City, CA). Real time PCR was performed using an ABI ViiA7 fast real-time PCR system (Applied Biosystems, Foster City, CA).

[2] = tested on: Src, P38 and IκB phosphorylation in A-375 and C8161.9 cells; assay: Western blotting of signaling proteins, human melanoma cells; format: cell-based; conditions: 24 hours
Description: (§1) FIG. 4B is a Western blot of C8161.9 and A-375 cells treated with indicated doses of IVMT-Rx-3 for 24 hours. Cell lysates were subjected to Western blotting analysis to determine the expression levels of various signaling proteins (as shown) associated with MDA-9/Syntenin: Src interactions. Western blotting densitometry and relative intensity of protein bands were calculated using Image J software. The values are provided.
(§2) Western blotting was performed following a standard protocol as described previously (6,8,18,29). Antibodies used in this study were purchased from Cell Signaling Technology (Boston, MA): p-Src (Y416), total Src, matrix metalloproteinase-2 (MMP-2) and matrix metaloproteinase-9 (MMP-9), focal adhesion kinase (FAK), p IKKα/β (S176/180), total IKK, p P38 (T180/Y182) and total P38. MDA-9/Syntenin antibody was obtained from Abnova Inc. (Taiwan). β-actin (Sigma-Aldrich, St. Louis, MO) was used as an endogenous loading control. Fibronectin was purchased from EMD Millipore (Billerica, MA).

B16 lung metastases = assay: B16 lung metastasis model in C57BL/6 mice; format: in vivo, mouse; conditions: 30 mg/kg I.P., 3× per week, 6 injections
Description: FIG. 6A is a series of images of B16 lung metastases in C57BL/6 mice treated with DMSO vehicle, PDZ1i, or IVMT-Rx-3 (intraperitoneal injection of 30 mg/kg, 3×/week, 6 injections total). 1×10^5 B16 cells were injected intravenously in C57BL/6 mice (n=7, per group) prior to treatment.
FIG. 6B is a series of histograms showing the number of nodules/lung, T cell populations (CD8^+IFN-γ^+) and myeloid-derived suppressor cells (MDSCs) in the lungs of the treatment groups described in FIG. 6A, as measured by flow cytometry. *: Statistical significance (p<0.05);**: Statistical significance (p<0.01);***: Statistical significance (p<0.001). ****: Statistical significance (p<0.0001).
All animal experiments were performed according to guidelines established by VCU IACUC. Immune competent mice (6-week-old male C57BL/6) were used in this study for determining the anti-metastatic efficiency of IVMT-Rx-3. Mice were purchased from Jackson Laboratories and after one-week in barrier facilities, experiments were performed. To establish lung metastases, murine B16 (1×10^5 cells/0.1 ml PBS) were injected via tail vein in C57BL/6 mice (18). Test chemical (IVMT-Rx-3) was administrated at 30 mg/kg body weight three times a week I.P. for the first two weeks (six injections, C57BL/6 study). DMSO was used as control. Anti-PD-L1 antibody and control antibodies for therapeutic injections were purchased from Bio X Cell (West Lebanon, NH, USA).
1×10^5 B16 cells were injected intravenously in C57BL/6 mice and treated with IVMT-Rx-3 (intraperitoneal injection 30 mg/kg, 3× in a week, 6 injections in total). 100 μg of Anti-PD-L1 antibody was injected through the I/P (intraperitoneal) route (3 times a week, over a 2-week period). A set of 20 animals were first injected with B16 cells (1×10^5 cells/mouse) and randomly divided into four groups (n=5) for survival studies. As stated in the above-mentioned lung metastasis protocol, mice received 6 doses of control vehicle or IVMT-Rx-3 either alone or in combination with anti-PD-L1 over the first two weeks. […]

[3] = tested on: MDA-9/Syntenin: Src signaling pathways in melanoma cell lines; assay: Western blotting of signaling proteins, other melanoma cell lines; format: cell-based, human; conditions: various melanoma cell lines; Western blot FIG. 12
Description: FIG. 12 is a Western blot of different signaling molecules as indicated for indicated cell lines treated with IVMT-Rx-3 at varying concentrations.
as §2

[4] = tested on: X11/mint scaffold protein; assay: Binding to other PDZ domains: X11/mint; conditions: 33% identity with PDZ1
[5] = Toxicity in pre-clinical animal models; conditions: in vivo
T cells = assay: T cell infiltration into the tumor environment; format: in vivo; conditions: targeting MDA-9/Syntenin
MMP-2 and MMP-9 [6] = assay: MMP-2 and MMP-9 protein by Western blotting; format: cell-based, human; conditions: Western blot; A-375, C8161.9, 24 hours; FIG. 4B
Description: as §1, §2

[7] = tested on: Src and P38 in B16 melanoma cells; assay: Western blotting, B16 cells; format: cell-based; conditions: B16 mouse melanoma cells, Western blot
Description: as §2

SMILES: Cc1cc(NC(=O)c2nc3[nH]c4c(c(=O)n3n2)CCC4)c(C)cc1NC(=O)CCOCCC(=O)N[C@H](C(=O)N[C@@H](CC(N)=O)C(=O)N[C@@H](CCC(=O)O)C(=O)N[C@@H](Cc1ccc(O)cc1)C(=O)N[C@@H](Cc1ccc(O)cc1)C(=O)N[C@H](C(=O)O)C(C)C)[C@@H](C)O [IVMT-Rx-3] (HELM PEPTIDE1{[Cc1cc(NC(=O)c2nc3[nH]c4c(c(=O)n3n2)CCC4)c(C)cc1NC(=O)CCOCCC(=O)[*:2]].T.N.E.Y.Y.V}$$$$V2.0)
- MMP-2 and MMP-9 mRNA expression (transcriptional level) (MMP-2 and MMP-9 [1]): down regulation
- Src activation (Src phosphorylation) [2]: significantly reduced Src activation
- levels of p-P38, p-Src, and pIκB [2]: Reduced levels
- efficacy against lung metastases compared with PDZ1i (B16 lung metastases): significantly higher compared with PDZ1i
- lung metastasis (combination experiment) (B16 lung metastases; single agent): markedly reduced lung metastasis
- number of lung nodules (B16 lung metastases; vs vehicle): significantly reduced the number of lung nodules
- inactivation of MDA-9/Syntenin: Src associated signaling pathways [3]: inactivation of various signaling pathways
- binding to X11/mint scaffold protein [4]: did not bind appreciably
- toxicity in pre-clinical animal models [5]: without provoking toxicity
- T cell infiltration into the tumor environment (T cells): causes T cell infiltration into the tumor environment
- MMP-2 and MMP-9 expression (translational level) (MMP-2 and MMP-9 [6]): down regulation
- Src and downstream P38 [7]: downregulation of Src and downstream P38

Source: patent US20260345798A1, “COMPOUNDS AND METHODS OF USE THEREOF” (Virginia Commonwealth University, priority 2023, published 2026)
